Reference: patent publication US10722514B2 (FLX Bio, Inc., priority 2017, dated 2020)

Molecular target: T1, recombinant full-length USP7 (Homo sapiens, UniProt Q93009)
T1 construct: A 25 μl reaction volume containing recombinant full-length USP7 (62 pM)
Test: USP7-mediated ubiquitin-rhodamine cleavage assay
Format: biochemical
Conditions: recombinant full-length USP7 62 pM; ubiquitin-rhodamine 100 nM; 30-minute incubation with compound, 1 hour reaction at room temperature; read-out: Potency: USP7 IC50
Procedure, shortened: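 Enzyme 62 pM; HEPES pH 7.3/150 mM NaCl/1 mM TCEP/125 μg/ml BSA; 1% DMSO; 30 min cpd preinc RT; Ub-rhodamine 100 nM, 1 h RT, dark; acetic acid stop; fluorescence; IC50 4-param fit.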

T1 sequence (Q93009 whole entry): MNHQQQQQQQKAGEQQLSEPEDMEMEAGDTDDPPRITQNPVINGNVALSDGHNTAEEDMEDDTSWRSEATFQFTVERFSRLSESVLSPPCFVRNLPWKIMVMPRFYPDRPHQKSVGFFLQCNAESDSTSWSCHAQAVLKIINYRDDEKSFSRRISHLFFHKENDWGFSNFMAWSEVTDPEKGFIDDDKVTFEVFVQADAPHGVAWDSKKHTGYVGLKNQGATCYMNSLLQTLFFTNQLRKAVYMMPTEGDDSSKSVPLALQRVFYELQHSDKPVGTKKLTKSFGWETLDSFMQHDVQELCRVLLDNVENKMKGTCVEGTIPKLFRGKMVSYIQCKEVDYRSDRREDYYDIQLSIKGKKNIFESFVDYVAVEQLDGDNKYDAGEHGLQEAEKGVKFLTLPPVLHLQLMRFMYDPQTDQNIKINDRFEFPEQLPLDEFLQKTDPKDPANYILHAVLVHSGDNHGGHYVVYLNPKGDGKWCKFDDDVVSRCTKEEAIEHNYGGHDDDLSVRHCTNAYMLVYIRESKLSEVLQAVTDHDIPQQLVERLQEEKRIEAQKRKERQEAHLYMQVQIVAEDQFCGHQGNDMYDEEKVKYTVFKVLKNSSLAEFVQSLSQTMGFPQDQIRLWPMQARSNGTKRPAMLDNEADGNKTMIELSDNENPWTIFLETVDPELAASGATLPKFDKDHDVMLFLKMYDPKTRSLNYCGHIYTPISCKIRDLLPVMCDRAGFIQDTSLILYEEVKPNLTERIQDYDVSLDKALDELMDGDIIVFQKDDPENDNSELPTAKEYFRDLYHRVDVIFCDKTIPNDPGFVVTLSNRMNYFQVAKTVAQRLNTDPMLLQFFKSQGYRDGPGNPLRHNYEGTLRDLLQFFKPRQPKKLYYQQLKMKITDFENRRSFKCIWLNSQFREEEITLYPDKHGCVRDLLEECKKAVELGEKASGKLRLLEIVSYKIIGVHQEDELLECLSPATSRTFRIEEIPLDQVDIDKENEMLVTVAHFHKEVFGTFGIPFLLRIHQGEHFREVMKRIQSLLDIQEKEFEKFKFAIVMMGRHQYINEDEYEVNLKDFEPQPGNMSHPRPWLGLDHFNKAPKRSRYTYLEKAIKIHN

SMILES	IC50 [nM]
CCC(O)c1cc2nccc(-c3cc(Cl)cc(C)c3OC3CC4CC3CN4)c2s1 (stereo not shown) [Example 197, 1-(7-(2-((2-Azabicyclo[2.2.1]heptan-5-yl)oxy)-5-chloro-3-methylphenyl)thieno[3,2-b]pyridin-2-yl)propan-1-ol]	1000 to 10000
Cc1cc(Cl)cc(-c2ccnc3ccsc23)c1OC1CCC(=O)NC1 (stereo not shown) [Example 198, 5-(4-Chloro-2-methyl-6-(thieno[3,2-b]pyridin-7-yl)phenoxy)piperidin-2-one]	> 30000
CCC(O)c1cc2nccc(-c3cc(Cl)cc(C)c3O[C@H]3C[C@H]4CC[C@@H](C3)N4)c2s1 (stereo partly drawn) [Example 199, 1-(7-(2-(((1R,3r,5S)-8-Azabicyclo[3.2.1]octan-3-yl)oxy)-5-chloro-3-methylphenyl)thieno[3,2-b]pyridin-2-yl)propan-1-ol]	1000 to 10000
Cc1cc(Cl)cc(-c2ccnc3cc(CO)sc23)c1OC1CCCNC1=O (stereo not shown) [Example 200, 3-(4-Chloro-2-(2-(hydroxymethyl)thieno[3,2-b]pyridin-7-yl)-6-methylphenoxy)piperidin-2-one]	> 30000
Cc1cc(Cl)cc(-c2ccnc3cc(CN4C(=O)CCC4C(F)(F)F)sc23)c1OC1CCNCC1 (stereo not shown) [Example 201, 1-((7-(5-Chloro-3-methyl-2-(piperidin-4-yloxy)phenyl)thieno[3,2-b]pyridin-2-yl)methyl)-5-(trifluoromethyl)pyrrolidin-2-one]	1000 to 10000
Cc1cc(Cl)cc(-c2ccnc3cc(CN4C(=O)CCN(C)C4=O)sc23)c1OC1CCNCC1 [Example 203, 3-((7-(5-Chloro-3-methyl-2-(piperidin-4-yloxy)phenyl)thieno[3,2-b]pyridin-2-yl)methyl)-1-methyldihydropyrimidine-2,4(1H,3H)-dione]	< 1000
CCC(O)c1cc2nccc(-c3cc(Cl)cc(C)c3OCC3CCNCC3)c2s1 (stereo not shown) [Example 204, 1-(7-(5-Chloro-3-methyl-2-(piperidin-4-ylmethoxy)phenyl)thieno[3,2-b]pyridin-2-yl)propan-1-ol]	10000 to 30000
Cc1cc(Cl)cc(-c2ccnc3cc(CN4C(=O)CCC4=O)sc23)c1OC1CCNCC1 [Example 210, 1-((7-(5-Chloro-3-methyl-2-(piperidin-4-yloxy)phenyl)thieno[3,2-b]pyridin-2-yl)methyl)pyrrolidine-2,5-dione]	< 1000
CN[C@H]1CC[C@H](Oc2c(C)cc(Cl)cc2-c2ccnc3cc(CN4C(=O)CCC4=O)sc23)CC1 [Example 213, 1-((7-(5-Chloro-3-methyl-2-(((1r,4r)-4-(methylamino)cyclohexyl)oxy)phenyl)thieno[3,2-b]pyridin-2-yl)methyl)pyrrolidine-2,5-dione]	< 1000
Cc1cc(Cl)cc(-c2ccnc3cc(CN4C(=O)CCC4=O)sc23)c1O[C@H]1C[C@H]2CC[C@@H](C1)N2 [Example 214, 1-((7-(2-(((1R,3r,5S)-8-Azabicyclo[3.2.1]octan-3-yl)oxy)-5-chloro-3-methylphenyl)thieno[3,2-b]pyridin-2-yl)methyl)pyrrolidine-2,5-dione]	< 1000
Cc1cc(Cl)cc(-c2ccnc3cc(CN4C(=O)CCC4=O)sc23)c1O[C@@H]1C[C@H]2CC[C@@H](C1)N2 [Example 215, 1-((7-(2-(((1R,3s,5S)-8-Azabicyclo[3.2.1]octan-3-yl)oxy)-5-chloro-3-methylphenyl)thieno[3,2-b]pyridin-2-yl)methyl)pyrrolidine-2,5-dione]	< 1000
Cc1cc(Cl)cc(-c2ccnc3cc(CN4C(=O)C5CCCCC5C4=O)sc23)c1OC1CCNCC1 (stereo not shown) [Example 217]	1000 to 10000
Cc1cc(Cl)cc(-c2ccnc3cc(CN4C(=O)C5CCCN5C4=O)sc23)c1OC1CCNCC1 (stereo not shown) [Example 218, 2-((7-(5-Chloro-3-methyl-2-(piperidin-4-yloxy)phenyl)thieno[3,2-b]pyridin-2-yl)methyl)tetrahydro-1H-pyrrolo[1,2-c]imidazole-1,3(2H)-dione]	1000 to 10000
Cc1cc(Cl)cc(-c2ccnc3cc(CCN4C(=O)CCS4(=O)=O)sc23)c1OC1CCNCC1 [Example 219, 2-(2-(7-(5-chloro-3-methyl-2-(piperidin-4-yloxy)phenyl)thieno[3,2-b]pyridin-2-yl)ethyl)isothiazolidin-3-one 1,1-dioxide]	10000 to 30000
Cc1cc(Cl)cc(-c2ccnc3cc(CN4C(=O)CCC4=O)sc23)c1O[C@H]1C[C@@H]2CN[C@H]1C2 [Example 221, 1-((7-(2-(((1S,4R,6S)-2-azabicyclo[2.2.1]heptan-6-yl)oxy)-5-chloro-3-methylphenyl)thieno[3,2-b]pyridin-2-yl)methyl)pyrrolidine-2,5-dione]	< 1000
Cc1cc(Cl)cc(-c2ccnc3cc(CN4C(=O)CCNC4=O)sc23)c1OC1CCNCC1 [Example 222, 3-((7-(5-Chloro-3-methyl-2-(piperidin-4-yloxy)phenyl)thieno[3,2-b]pyridin-2-yl)methyl)dihydropyrimidine-2,4(1H,3H)-dione]	< 1000
Cc1cc(Cl)cc(-c2ncnc3cc(CN4C(=O)COC4=O)sc23)c1OC1CCNCC1 [Example 225, 3-((4-(5-Chloro-3-methyl-2-(piperidin-4-yloxy)phenyl)thieno[3,2-d]pyrimidin-6-yl)methyl)oxazolidine-2,4-dione]	1000 to 10000

Results, then the molecule that gave them:

IC50 [nM]	SMILES
< 1000	Cc1cc(Cl)cc(-c2ncnc3cc(CN4C(=O)c5ccccc5C4=O)sc23)c1OC1CCNCC1 [Example 202, 2-((4-(5-Chloro-3-methyl-2-(piperidin-4-yloxy)phenyl)thieno[3,2-d]pyrimidin-6-yl)methyl)isoindoline-1,3-dione]
< 1000	Cc1cc(Cl)cc(-c2ccnc3cc(CN4C(=O)CCC4=O)sc23)c1OC1CCNC(C)(C)C1 (stereo not shown) [Example 205, 1-((7-(5-Chloro-2-((2,2-dimethylpiperidin-4-yl)oxy)-3-methylphenyl)thieno[3,2-b]pyridin-2-yl)methyl)pyrrolidine-2,5-dione]
< 1000	Cc1cc(Cl)cc(-c2ccnc3cc(CN4C(=O)CCC4=O)sc23)c1O[C@H]1[C@@H]2CNC[C@H]1C2 [Example 206, 1-((7-(2-(((1R,5S,6s)-3-Azabicyclo[3.1.1]heptan-6-yl)oxy)-5-chloro-3-methylphenyl)thieno[3,2-b]pyridin-2-yl)methyl)pyrrolidine-2,5-dione]
1000 to 10000	Cc1cc(Cl)cc(-c2ccnc3cc(CN4C(=O)CCC4=O)sc23)c1OC1CCN(C2COC2)CC1 [Example 207, 1-((7-(5-Chloro-3-methyl-2-((1-(oxetan-3-yl)piperidin-4-yl)oxy)phenyl)thieno[3,2-b]pyridin-2-yl)methyl)pyrrolidine-2,5-dione]
< 1000	Cc1cc(Cl)cc(-c2ccnc3cc(CN4C(=O)CCC4=O)sc23)c1O[C@H]1CCNC[C@@H]1F [Example 208, 1-((7-(5-Chloro-2-(((3S,4S)-3-fluoropiperidin-4-yl)oxy)-3-methylphenyl)thieno[3,2-b]pyridin-2-yl)methyl)pyrrolidine-2,5-dione]
< 1000	Cc1cc(Cl)cc(-c2ccnc3cc(CN4C(=O)CCC4=O)sc23)c1O[C@@H]1CCNC[C@@H]1F [Example 209, 1-((7-(5-Chloro-2-(((3S,4R)-3-fluoropiperidin-4-yl)oxy)-3-methylphenyl)thieno[3,2-b]pyridin-2-yl)methyl)pyrrolidine-2,5-dione]
< 1000	Cc1cc(Cl)cc(-c2ccnc3cc(CN4C(=O)CCC4=O)sc23)c1O[C@H]1CCCNC1 [Example 211, (S)-1-((7-(5-Chloro-3-methyl-2-(piperidin-3-yloxy)phenyl)thieno[3,2-b]pyridin-2-yl)methyl)pyrrolidine-2,5-dione]
< 1000	Cc1cc(C#N)cc(-c2ccnc3cc(CN4C(=O)CCC4=O)sc23)c1OC1CCNCC1 [Example 212, 3-(2-((2,5-Dioxopyrrolidin-1-yl)methyl)thieno[3,2-b]pyridin-7-yl)-5-methyl-4-(piperidin-4-yloxy)benzonitrile]
< 1000	Cc1cc(Cl)cc(-c2ccnc3cc(CN4C(=O)CCC4=O)sc23)c1OC1CCN(C)CC1 [Example 216, 1-((7-(5-Chloro-3-methyl-2-((I-methylpiperidin-4-yl)oxy)phenyl)thieno[3,2-b]pyridin-2-yl)methyl)pyrrolidine-2,5-dione]
< 1000	Cc1cc(Cl)cc(-c2ccnc3cc(CN4C(=O)CCC4=O)sc23)c1O[C@H]1C[C@H]2CN[C@@H]1C2 [Example 220, 1-((7-(2-(((1R,4S,6S)-2-azabicyclo[2.2.1]heptan-6-yl)oxy)-5-chloro-3-methylphenyl)thieno[3,2-b]pyridin-2-yl)methyl)pyrrolidine-2,5-dione]
< 1000	Cc1cc(Cl)cc(-c2ccnc3cc(CN4C(=O)CCC4=O)sc23)c1O[C@H]1CCNC[C@@H]1C [Example 223, 1-((7-(5-Chloro-3-methyl-2-(((3S,4S)-3-methylpiperidin-4-yl)oxy)phenyl)thieno[3,2-b]pyridin-2-yl)methyl)pyrrolidine-2,5-dione]
1000 to 10000	Cc1cc(Cl)cc(-c2ccnc3cc(CN4C(=O)CN(C)C4=O)sc23)c1OC1CCNCC1 [Example 224, 3-((7-(5-Chloro-3-methyl-2-(piperidin-4-yloxy)phenyl)thieno[3,2-b]pyridin-2-yl)methyl)-1-methylimidazolidine-2,4-dione]
1000 to 10000	Cc1cc(Cl)cc(-c2ncnc3cc(CN4C(=O)CSC4=O)sc23)c1OC1CCNCC1 [Example 226, 3-((4-(5-Chloro-3-methyl-2-(piperidin-4-yloxy)phenyl)thieno[3,2-d]pyrimidin-6-yl)methyl)thiazolidine-2,4-dione]
10000 to 30000	Cc1cc(Cl)cc(-c2ccnc3cc(Cn4c(C(F)(F)F)cccc4=O)sc23)c1OC1CCNCC1 [Example 227, 1-((7-(5-Chloro-3-methyl-2-(piperidin-4-yloxy)phenyl)thieno[3,2-b]pyridin-2-yl)methyl)-6-(trifluoromethyl)pyridin-2(1H)-one]
